Measured values reported in patent US20260250627A1, “A new bacterial strain Weissella cibaria, a composition comprising it, a pharmaceutical composition for use, a dietary supplement, a probiotic preparation, a bacterial starter culture for making bread, sourdough, bread, a method for the production of bread, a method for microbiological production …” (INSTYTUT BIOCHEMII I BIOFIZVKI PAN, priority 2023, published 2026).
Values after ≈ are worked out from the molar mass of the structure shown.

Test system: IBB3394 strain (KKP 2094p)
Experiment: Antibiotic sensitivity test with E-test strips (Example 11)
Format: cell-based, Weissella cibaria
Conditions: E-test strips, IST-MRS, 30° C., 48 h, aerobic
Protocol: The safety assessment of the selected strain of Weissella sp. IBB3394 was carried out by testing antibiotic susceptibility using E-test strips (bioMerieux) in accordance with the manufacturer's recommendations. The tested strain was seeded on IST-MRS solid medium and incubated at 30° C. in aerobic conditions. […] Antibiotic strips were placed on the surface of the plate and the plates were incubated at 30° C. for 48 h in aerobic conditions.

| Compound | Minimum inhibitory concentration (MIC) IBB3394 [µg/mL] |
| --- | --- |
| gentamicin [GM] | 4 |

Same assay, conditions: Weissella cibaria, 48 h, read-out: Minimum inhibitory concentration (MIC) IBB3394

| Compound | MIC [µg/mL] |
| --- | --- |
| CN[C@H](CC(C)C)C(=O)N[C@H]1C(=O)N[C@@H](CC(N)=O)C(=O)N[C@H]2C(=O)N[C@H]3C(=O)N[C@H](C(=O)N[C@H](C(=O)O)c4cc(O)cc(O)c4-c4cc3ccc4O)[C@H](O)c3ccc(c(Cl)c3)Oc3cc2cc(c3O[C@@H]2O[C@H](CO)[C@@H](O)[C@H](O)[C@H]2O[C@H]2C[C@](C)(N)[C@H](O)[C@H](C)O2)Oc2ccc(cc2Cl)[C@H]1O [VA, vancomycin] | > 256 |

Same assay, conditions: Weissella cibaria; E-test strips, IST-MRS, 30° C., 48 h, aerobic; read-out: Minimum inhibitory concentration (MIC) IBB3394

| Compound | MIC [µg/mL] |
| --- | --- |
| CC1(C)S[C@@H]2[C@H](NC(=O)[C@H](N)c3ccccc3)C(=O)N2[C@H]1C(=O)O [AM, ampicillin] | 0.38 to 0.5 (≈ 1.09 to 1.43 µM) |
| [H]/N=C(/N)N[C@H]1[C@H](O)[C@@H](O)[C@H](O[C@@H]2O[C@@H](C)[C@](O)(C=O)[C@H]2O[C@@H]2O[C@@H](CO)[C@H](O)[C@@H](O)[C@@H]2NC)[C@@H](N/C(N)=N\[H])[C@@H]1O [SM, streptomycin] | 8 (≈ 13.8 µM) |
| O=C(N[C@H](CO)[C@H](O)c1ccc([N+](=O)[O-])cc1)C(Cl)Cl [CL, chloramphenicol] | 2 to 3 (≈ 6.19 to 9.28 µM) |
| CC[C@H]1OC(=O)[C@H](C)[C@@H](O[C@H]2C[C@@](C)(OC)[C@@H](O)[C@H](C)O2)[C@H](C)[C@@H](O[C@@H]2O[C@H](C)C[C@H](N(C)C)[C@H]2O)[C@](C)(O)C[C@@H](C)C(=O)[C@H](C)[C@@H](O)[C@]1(C)O [EM, erythromycin] | 0.094 (≈ 0.128 µM) |
| CCC[C@@H]1C[C@@H](C(=O)N[C@@H]([C@H]2O[C@H](SC)[C@H](O)[C@@H](O)[C@H]2O)[C@H](C)Cl)N(C)C1 [CM, clindamycin] | 0.016 (≈ 0.0376 µM) |
| NC[C@H]1O[C@H](O[C@H]2[C@H](O)[C@@H](O[C@H]3O[C@H](CO)[C@@H](O)[C@H](N)[C@H]3O)[C@H](N)C[C@@H]2N)[C@H](O)[C@@H](O)[C@@H]1O [KM, kanamycin] | 16 (≈ 33 µM) |
| CN(C)[C@@H]1C(O)=C(C(N)=O)C(=O)[C@@]2(O)C(O)=C3C(=O)c4c(O)cccc4[C@@](C)(O)[C@H]3C[C@@H]12 [TC, tetracycline] | 2 (≈ 4.5 µM) |
